Values after ≈ are worked out from the molar mass of the structure shown. Each block holds one compound with its values, some of them ahead of it.
How the values were obtained:
[1] = tested on: Staphylococcus aureus; assay: Antibacterial activity, standard serial dilution technique (MIC); assay type: cell-based; conditions: read-out: minimal (bacteriostatic) inhibitory concentration (MIC)
Excerpt: The antibacterial activities for the compounds of formulas I and II and the compound of formula V where R is pentafluoroethyl were established using standard serial dilution techniques as described by Goss and Cimijotti, Applied Microbiology 16, 1414 (1968).

[2] = tested on: Platelet aggregation induced by ADP; conditions: Oryctolagus cuniculus, read-out: % Inhibition of platelet aggregation induced by ADP
[3] = tested on: Platelet aggregation induced by collagen; conditions: Oryctolagus cuniculus, read-out: % Inhibition of platelet aggregation induced by collagen
[4] = tested on: platelet aggregate (thrombus); assay: In vivo inhibition of platelet aggregation, modified extracorporeal shunt technique (thrombus deposit weight); design: species or system New Zealand rabbits; conditions: single dose, 3 hours after medication; for % Inhibition of platelet aggregation (in vivo): P < 0.0005; for x Deposit Weight ± s.d.: mean
Excerpt: The antithrombotic or platelet aggregation inhibitory effect of the compounds of formulas I and II was further determined by a modified extracorporeal shunt technique in rabbits. Rowntree and Shinoya [J. Exp. Med. 46, 7 (1927)] described a method of extracorporeal circulation for the observation of thrombus formation. Downie et al. [Circulation Res. 12, 441 (1963)] modified this technique in order to study the effects of various chemicals upon the platelet aggregates formed in such a system. The following procedure, a further modification of said technique, was used to determine the antithrombotic activity of the compounds of the invention.
New Zealand rabbits weighing 1.5 to 3.0 kg. each were used for these studies. All animals were dosed orally by stomach tube with the test compound at a given time, e.g., 3, 8, 12, 24, etc. hours, prior to testing the blood samples. Control animals (from 3 to 5 in number for each dose level of compound) were given the vehicle used for solubilizing the compounds tested. All animals were anesthetized with sodium pentobarbital (Pentobrocanal) intravenously, 25-32 mg./kg., and secured to a dissecting board. The right femoral artery was cannulated and connected to a Statham pressure transducer (P 23AC) for continuously measuring arterial blood pressure which was recorded by means of a Grass (Model 7) polygraph.
A longitudinal incision was made in the midcervical region. The jugular vein and the carotid artery on one side were isolated and cannulated with appropriate size catheters filled with saline solution, which were in turn connected via Y-shaped polypropylene connectors establishing the shunt.
The components of the shunt were thoroughly siliconized except for the Y-connector on the arterial side. This connector is weighed prior to running the experiment. A blood sample was withdrawn from the femoral artery to provide a control platelet count. The animal was allowed 10-12 minutes to attain a relatively stable blood pressure level after which the shunt was opened and the blood permitted to flow. The time from the first appearance of blood, in the arterial catheter until its re-entry into the body, via the venous catheter, was measured and recorded, as flow time, which was used to determine the initial rate of flow.
The shunt remained open for a period of twenty minutes. One minute before the end, the femoral catheter was removed from the transducer and a second blood sample was taken. Duplicate platelet counts were made for each sample of blood. The shunt was removed from the animal by pulling out both catheters, arterial and venous, arterial first. The Y-connectors were washed with 10 cc. of saline solution. The arterial Y-connector was separated and dried in an oven overnight at 40°C., then reweighed. The initial weight of the connector was subtracted from the final weight, and the difference is considered to be the mass of the platelet aggregate (thrombus).
(single dose medication), the blood samples having been tested three hours after medication: […]

MIC [1]: ~500 µg/mL (≈ 1990 µM)
Structure (SMILES): FC(F)(F)C(F)(F)C1NCCc2ccccc21 (stereo not shown) [1,2,3,4-tetrahydro-1-(pentafluoroethyl)isoquinoline]

Structure (SMILES): NC(=NO)N1CCc2ccccc2C1C(F)(F)C(F)(F)C(F)(F)F (stereo not shown) [Example 2E]
inhibition at 1000 µM [2]: 8.3%
inhibition at 1000 µM [3]: 94.2%

Structure (SMILES): NC(=NO)N1Cc2ccccc2CC1C(F)(F)F (stereo not shown) [Example 3E]
inhibition at 3000 µM [2]: 64.4%
inhibition at 300 µM [3]: 67.4%

Structure (SMILES): Cl.NC(=NO)N1CCc2ccccc2C1C(F)(F)C(F)(F)F (stereo not shown) [Example 1E]
inhibition at 3000 µM [2]: 74.2%
inhibition at 100 µM [3]: 24.3%
% Inhibition of platelet aggregation (in vivo) ([4]; 10 mg/kg oral): 17%
x Deposit Weight ± s.d. ([4]; 10 mg/kg oral): 1.54 ± 0.09
% Inhibition of platelet aggregation (in vivo) ([4]; 25 mg/kg oral): 38%
x Deposit Weight ± s.d. ([4]; 25 mg/kg oral): 1.16 ± 0.05
% Inhibition of platelet aggregation (in vivo) ([4]; 50 mg/kg oral): 41%
x Deposit Weight ± s.d. ([4]; 50 mg/kg oral): 1.08 ± 0.08

— patent US3956333A, “1(Or 3)-perfluoroalkyl-3,4-dihydro-2(1H)-isoquinolinecarbonitriles” (Sterling Drug Inc., priority 1975, dated 1976)
